Measured values as given in paper PMC8662641, “Site-Specific Labeling of Endogenous Proteins Using CoLDR Chemistry” (Journal of the American Chemical Society, 2021).

System: Mino cells
Experiment: Pull-down proteomics in Mino cells
Format: cell-based, human
Procedure: The cells were lysed and “clicked” with biotin-azide, and the samples were incubated at room temperature for 1 h. The samples were then precipitated with methanol–chloroform (1 mL of methanol, 250 μL of chloroform, 750 μL of water), washed with 1 mL of methanol, and air-dried. The samples were solubilized, bound to streptavidin agarose beads in PBS for 3 h at 25 °C. The beads were washed, centrifuged, resuspended in Tris 50 mM pH 8, and transferred to a clean Eppendorf tube. After this, the bound proteins were eluted by boiling with 5% SDS then reduced with DTT, alkylated with iodoacetamide, and digested with trypsin. The samples were run on LC/MS/MS. The detailed procedure is available in the Supplementary Methods Section. […]
Pull-down proteomics experiments
1b or DMSO. The cells were spun down, washed with cold PBS and frozen. Then, each sample was lysed in 200 ul of RIPA for 15 minutes on ice and centrifuged at 20000 g at 4 °C. The protein in the supernatant was quantified using BCA. For each sample, […] of 1.65 mg/ml was prepared.
At this point, 5 ul of 5 mM biotin azide and 9 ul of 100 mM CuSO4:THPTA complex were added.
The click reaction was initiated by the addition of 7.5 ul of 150 mM sodium ascorbate, and the samples are incubated at room temperature for 1 hour. The samples were then precipitated with methanol: chloroform (1 ml methanol, 250 l chloroform, 750 l water), washed with 1 ml of methanol, and air dried. The dry pellet was resuspended in 1.2% SDS in PBS (250 l), sonicated as described before, and heated to 90 °C for 5 minutes. The samples were then diluted to 1.5 ml with PBS, and 50 ul of streptavidin agarose beads, prewashed with 0.2% SDS in PBS, were added, followed by 3 hour incubation at room temperature. Following the incubation, the beads were centrifuged 2 minutes 2000 g, and washed 4 times, with the following buffers (4 ml in each wash):
2% SDS; 0.1% sodium deoxycholate, 1% Triton X-100, 0.5 M NaCl, 1 mM EDTA, 50 mM HEPES pH = 7.5; 0.25 M NaCl, 0.5% IGEPAL, 0.5% sodium deoxycholate, 1 mM EDTA, 10 mM Tris pH = 8.1; 50 mM Tris pH = 7.4, 50 mM NaCl. The beads were then resuspended in Tris 50 mM pH = 8 and transferred to a clean Eppendorf tube.
At this point, the buffer was removed to leave a volume of 100 ul, and 100 ul of Tris 50 mM pH 8 + 10% SDS was added, and the samples were heated to 96 °C for 5 minutes. The samples were then centrifuged and the denatured, eluted proteins were transferred to new tubes. Then, 7.5 ul of 0.1 M DTT was added, and samples were incubated at 65 °C for 45 minutes. After the samples had cooled, 7.5 ul of iodoacetamide (0.2 M) were added, and the samples were incubated in the dark for 40 minutes at room temperature. At this point 1/10 volume of 12% phosphoric acid was added, and the samples were diluted 6-fold with 90% methanol + 50 mM ammonium bicarbonate. The samples were then loaded on s-trap micro columns (Protify) and the columns […]
were washed 3 times with 150 ul of 90% methanol + 50 mM ammonium bicarbonate. Then, 20 ul of 0.05 g/l of trypsin in 50 mM ammonium bicarbonate were added to the columns, and the samples were incubated at 47 °C for 90 minutes. Then 40 ul of 50 mM ammonium bicarbonate was added, followed by centrifugation and addition of 1 ul of 0.5 g/l trypsin to the eluate, which was incubated at 37C overnight. The column itself was then eluted using 40 ul of 0.2% formic acid and 40 ul 0.2% formic acid in 50% acetonitrile into a separate tube, which was kept at 4 °C. The two eluates were then combined and evaporated before running on LC/MS/MS.
Running samples on LC/MS/MS:
ULC/MS grade solvents were used for all chromatographic steps. Each sample was loaded using split-less nano-Ultra Performance Liquid Chromatography (10 kpsi nanoAcquity; Waters, Milford, MA, USA). The mobile phase was: A) H2O + 0.1% formic acid and B) acetonitrile + 0.1% formic acid. Desalting of the samples was performed online using a reversed-phase Symmetry C18 […]

C#CCCNC(=O)C(=C)CN1CCC[C@@H](n2nc(-c3ccc(Oc4ccccc4)cc3)c3c(N)ncnc32)C1 [1b]
Log2(fold enrichment) (ACACA_HUMAN group, 1b relative to pretreatment by ibrutinib): 0.4315
Log2(fold enrichment) (ACACA_HUMAN group, 1b relative to treatment with DMSO): -0.2749
Log2(fold enrichment) (ACTG_HUMAN group, 1b relative to pretreatment by ibrutinib): 0.2725
Log2(fold enrichment) (ACTG_HUMAN group, 1b relative to treatment with DMSO): 0.2915
Log2(fold enrichment) (ALDOA_HUMAN, 1b relative to pretreatment by ibrutinib): 0.4926
Log2(fold enrichment) (ALDOA_HUMAN, 1b relative to treatment with DMSO): 0.06327
Log2(fold enrichment) (ANXA2_HUMAN group, 1b relative to pretreatment by ibrutinib): -0.9011
Log2(fold enrichment) (ANXA2_HUMAN group, 1b relative to treatment with DMSO): 0.8548
Log2(fold enrichment) (B3GT4_HUMAN, 1b relative to pretreatment by ibrutinib): 0.1405
Log2(fold enrichment) (B3GT4_HUMAN, 1b relative to treatment with DMSO): 2.2518
Log2(fold enrichment) (CAD15_HUMAN, 1b relative to pretreatment by ibrutinib): -2.753
Log2(fold enrichment) (CAD15_HUMAN, 1b relative to treatment with DMSO): -0.7397
Log2(fold enrichment) (CRERF_HUMAN, 1b relative to pretreatment by ibrutinib): -0.1083
Log2(fold enrichment) (CRERF_HUMAN, 1b relative to treatment with DMSO): -0.06839
Log2(fold enrichment) (CX062_HUMAN, 1b relative to pretreatment by ibrutinib): 3.426
Log2(fold enrichment) (CX062_HUMAN, 1b relative to treatment with DMSO): 2.336
Log2(fold enrichment) (CYB5B_HUMAN, 1b relative to pretreatment by ibrutinib): 4.3203
Log2(fold enrichment) (CYB5B_HUMAN, 1b relative to treatment with DMSO): 3.916
Log2(fold enrichment) (CYFP1_HUMAN, 1b relative to pretreatment by ibrutinib): 5.178
Log2(fold enrichment) (CYFP1_HUMAN, 1b relative to treatment with DMSO): 4.841
Log2(fold enrichment) (DCD_HUMAN, 1b relative to pretreatment by ibrutinib): 0.833
Log2(fold enrichment) (DCD_HUMAN, 1b relative to treatment with DMSO): 3.261
Log2(fold enrichment) (DESP_HUMAN, 1b relative to pretreatment by ibrutinib): -0.03598
Log2(fold enrichment) (DESP_HUMAN, 1b relative to treatment with DMSO): 1.065
Log2(fold enrichment) (DSC1_HUMAN, 1b relative to pretreatment by ibrutinib): -0.2037
Log2(fold enrichment) (DSC1_HUMAN, 1b relative to treatment with DMSO): 0.5233
Log2(fold enrichment) (DSG1_HUMAN, 1b relative to pretreatment by ibrutinib): -0.7862
Log2(fold enrichment) (DSG1_HUMAN, 1b relative to treatment with DMSO): 1.658
Log2(fold enrichment) (EF1A3_HUMAN group, 1b relative to pretreatment by ibrutinib): 0.1605
Log2(fold enrichment) (EF1A3_HUMAN group, 1b relative to treatment with DMSO): 0.3209
Log2(fold enrichment) (ELAF_HUMAN, 1b relative to pretreatment by ibrutinib): -0.07576
Log2(fold enrichment) (ELAF_HUMAN, 1b relative to treatment with DMSO): 3.288
Log2(fold enrichment) (ENOA_HUMAN, 1b relative to pretreatment by ibrutinib): 0.1924
Log2(fold enrichment) (ENOA_HUMAN, 1b relative to treatment with DMSO): 0.2037
Log2(fold enrichment) (EP400_HUMAN, 1b relative to pretreatment by ibrutinib): 1.834
Log2(fold enrichment) (EP400_HUMAN, 1b relative to treatment with DMSO): -0.06967
Log2(fold enrichment) (FABP5_HUMAN, 1b relative to pretreatment by ibrutinib): -0.02939
Log2(fold enrichment) (FABP5_HUMAN, 1b relative to treatment with DMSO): 1.253
Log2(fold enrichment) (G3P_HUMAN, 1b relative to pretreatment by ibrutinib): 0.2104
Log2(fold enrichment) (G3P_HUMAN, 1b relative to treatment with DMSO): 0.2112
Log2(fold enrichment) (GRAH_HUMAN, 1b relative to pretreatment by ibrutinib): -0.3838
Log2(fold enrichment) (GRAH_HUMAN, 1b relative to treatment with DMSO): 1.151
Log2(fold enrichment) (GSTP1_HUMAN, 1b relative to pretreatment by ibrutinib): 0.8097
Log2(fold enrichment) (GSTP1_HUMAN, 1b relative to treatment with DMSO): 1.004
Log2(fold enrichment) (HS90B_HUMAN group, 1b relative to pretreatment by ibrutinib): 0.4589
Log2(fold enrichment) (HS90B_HUMAN group, 1b relative to treatment with DMSO): 0.7364
Log2(fold enrichment) (HSP7C_HUMAN, 1b relative to pretreatment by ibrutinib): 0.6921
Log2(fold enrichment) (HSP7C_HUMAN, 1b relative to treatment with DMSO): 0.6391
Log2(fold enrichment) (K2C6B_HUMAN, 1b relative to pretreatment by ibrutinib): -0.8867
Log2(fold enrichment) (K2C6B_HUMAN, 1b relative to treatment with DMSO): 0.6152
Log2(fold enrichment) (KPYM_HUMAN, 1b relative to pretreatment by ibrutinib): 0.1731
Log2(fold enrichment) (KPYM_HUMAN, 1b relative to treatment with DMSO): 1.135
Log2(fold enrichment) (LDHA_HUMAN, 1b relative to pretreatment by ibrutinib): 0.2369
Log2(fold enrichment) (LDHA_HUMAN, 1b relative to treatment with DMSO): -0.2458
Log2(fold enrichment) (LEG9C_HUMAN group, 1b relative to pretreatment by ibrutinib): 1.455
Log2(fold enrichment) (LEG9C_HUMAN group, 1b relative to treatment with DMSO): -0.9819
Log2(fold enrichment) (MCCA_HUMAN, 1b relative to pretreatment by ibrutinib): 0.4599
Log2(fold enrichment) (MCCA_HUMAN, 1b relative to treatment with DMSO): -0.3745
Log2(fold enrichment) (MMRN2_HUMAN, 1b relative to pretreatment by ibrutinib): -0.0371
Log2(fold enrichment) (MMRN2_HUMAN, 1b relative to treatment with DMSO): 0.08276
off-targets found in pull-down proteomics (Mino cells, 100 nM 1b): BLK, MCAT, and ADK
Log2(fold enrichment) (NEUM_HUMAN, 1b relative to pretreatment by ibrutinib): 2
Log2(fold enrichment) (NEUM_HUMAN, 1b relative to treatment with DMSO): 0.3281
Log2(fold enrichment) (NPM_HUMAN, 1b relative to pretreatment by ibrutinib): 1.109
Log2(fold enrichment) (NPM_HUMAN, 1b relative to treatment with DMSO): 0.4515
Log2(fold enrichment) (PIP_HUMAN, 1b relative to pretreatment by ibrutinib): 0.6558
Log2(fold enrichment) (PIP_HUMAN, 1b relative to treatment with DMSO): -0.01924
Log2(fold enrichment) (PLAK_HUMAN, 1b relative to pretreatment by ibrutinib): 0.152
Log2(fold enrichment) (PLAK_HUMAN, 1b relative to treatment with DMSO): 1.616
Log2(fold enrichment) (PRDX2_HUMAN group, 1b relative to pretreatment by ibrutinib): -0.09254
Log2(fold enrichment) (PRDX2_HUMAN group, 1b relative to treatment with DMSO): -0.2676
Log2(fold enrichment) (REL_HUMAN, 1b relative to pretreatment by ibrutinib): 1.348
Log2(fold enrichment) (REL_HUMAN, 1b relative to treatment with DMSO): -0.2147
Log2(fold enrichment) (RL13_HUMAN, 1b relative to pretreatment by ibrutinib): 0.7491
Log2(fold enrichment) (RL13_HUMAN, 1b relative to treatment with DMSO): 0.2396
Log2(fold enrichment) (RL15_HUMAN, 1b relative to pretreatment by ibrutinib): 0.2388
Log2(fold enrichment) (RL15_HUMAN, 1b relative to treatment with DMSO): 0.9031
Log2(fold enrichment) (RL18_HUMAN, 1b relative to pretreatment by ibrutinib): 0.6086
Log2(fold enrichment) (RL18_HUMAN, 1b relative to treatment with DMSO): -0.373
Log2(fold enrichment) (RL40_HUMAN group, 1b relative to pretreatment by ibrutinib): -1.022
Log2(fold enrichment) (RL40_HUMAN group, 1b relative to treatment with DMSO): 0.218
Log2(fold enrichment) (S10A8_HUMAN, 1b relative to pretreatment by ibrutinib): 0.2414
Log2(fold enrichment) (S10A8_HUMAN, 1b relative to treatment with DMSO): 0.2312
Log2(fold enrichment) (S10A9_HUMAN, 1b relative to pretreatment by ibrutinib): 0.07875
Log2(fold enrichment) (S10A9_HUMAN, 1b relative to treatment with DMSO): 2.006
Log2(fold enrichment) (SYFM_HUMAN, 1b relative to pretreatment by ibrutinib): 0.9276
Log2(fold enrichment) (SYFM_HUMAN, 1b relative to treatment with DMSO): -1.069
Log2(fold enrichment) (TBA1B_HUMAN group, 1b relative to pretreatment by ibrutinib): 0.8267
Log2(fold enrichment) (TBA1B_HUMAN group, 1b relative to treatment with DMSO): 1.164
Log2(fold enrichment) (TBB5_HUMAN group, 1b relative to pretreatment by ibrutinib): 1.023
Log2(fold enrichment) (TBB5_HUMAN group, 1b relative to treatment with DMSO): 0.6602
Log2(fold enrichment) (TGM3_HUMAN, 1b relative to pretreatment by ibrutinib): -0.2702
Log2(fold enrichment) (TGM3_HUMAN, 1b relative to treatment with DMSO): 0.4648
Log2(fold enrichment) (THIO_HUMAN, 1b relative to pretreatment by ibrutinib): 0.6478
Log2(fold enrichment) (THIO_HUMAN, 1b relative to treatment with DMSO): 0.5583
Log2(fold enrichment) (TPIS_HUMAN, 1b relative to pretreatment by ibrutinib): 1.866
Log2(fold enrichment) (TPIS_HUMAN, 1b relative to treatment with DMSO): 2.762
Log2(fold enrichment) (VDAC2_HUMAN, 1b relative to pretreatment by ibrutinib): 0.298
Log2(fold enrichment) (VDAC2_HUMAN, 1b relative to treatment with DMSO): 2.794
Log2(fold enrichment) (ZNT4_HUMAN, 1b relative to pretreatment by ibrutinib): 0.6391
Log2(fold enrichment) (ZNT4_HUMAN, 1b relative to treatment with DMSO): 0.7876
